The record followed here is patent US10072017B2, “Compounds and methods for the treatment of cystic fibrosis” (Flatley Discovery Lab, LLC, priority 2015, dated 2018).

For this assay, the target named is T1, CFTR (Homo sapiens, UniProt P13569, DEL508-508).
T1 construct: Primary CF airway epithelial cells were obtained from the UNC Cystic Fibrosis Tissue Procurement and Cell Culture Core; host or cells: primary CF airway epithelial cells
The assay is described as follows: Equivalent current assay in Primary CF airway epithelial cells (NAUC). The format is cell-based. To be noted: 24 h, normalized to VX809 (3 μM) positive control; for Nauc @ 3 μM: 3 μM test compound; for Nauc @ 10 μM: 10 μM test compound. The procedure, abridged: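 NAUC is the area under the curve from forskolin (10 μM) plus VX770 (1 μM) addition to CFTR-172 (20 μM) block, after benzamil (5 μM). It is corrected for vehicle and scaled to 3 μM VX809 as 1.0 and DMSO as 0.0. Cells were exposed for 24 h to compounds with VX809; medians of ≥4 replicates were fitted sigmoidally.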

T1 sequence (P13569 with tags, fused parts or gaps DEL508-508): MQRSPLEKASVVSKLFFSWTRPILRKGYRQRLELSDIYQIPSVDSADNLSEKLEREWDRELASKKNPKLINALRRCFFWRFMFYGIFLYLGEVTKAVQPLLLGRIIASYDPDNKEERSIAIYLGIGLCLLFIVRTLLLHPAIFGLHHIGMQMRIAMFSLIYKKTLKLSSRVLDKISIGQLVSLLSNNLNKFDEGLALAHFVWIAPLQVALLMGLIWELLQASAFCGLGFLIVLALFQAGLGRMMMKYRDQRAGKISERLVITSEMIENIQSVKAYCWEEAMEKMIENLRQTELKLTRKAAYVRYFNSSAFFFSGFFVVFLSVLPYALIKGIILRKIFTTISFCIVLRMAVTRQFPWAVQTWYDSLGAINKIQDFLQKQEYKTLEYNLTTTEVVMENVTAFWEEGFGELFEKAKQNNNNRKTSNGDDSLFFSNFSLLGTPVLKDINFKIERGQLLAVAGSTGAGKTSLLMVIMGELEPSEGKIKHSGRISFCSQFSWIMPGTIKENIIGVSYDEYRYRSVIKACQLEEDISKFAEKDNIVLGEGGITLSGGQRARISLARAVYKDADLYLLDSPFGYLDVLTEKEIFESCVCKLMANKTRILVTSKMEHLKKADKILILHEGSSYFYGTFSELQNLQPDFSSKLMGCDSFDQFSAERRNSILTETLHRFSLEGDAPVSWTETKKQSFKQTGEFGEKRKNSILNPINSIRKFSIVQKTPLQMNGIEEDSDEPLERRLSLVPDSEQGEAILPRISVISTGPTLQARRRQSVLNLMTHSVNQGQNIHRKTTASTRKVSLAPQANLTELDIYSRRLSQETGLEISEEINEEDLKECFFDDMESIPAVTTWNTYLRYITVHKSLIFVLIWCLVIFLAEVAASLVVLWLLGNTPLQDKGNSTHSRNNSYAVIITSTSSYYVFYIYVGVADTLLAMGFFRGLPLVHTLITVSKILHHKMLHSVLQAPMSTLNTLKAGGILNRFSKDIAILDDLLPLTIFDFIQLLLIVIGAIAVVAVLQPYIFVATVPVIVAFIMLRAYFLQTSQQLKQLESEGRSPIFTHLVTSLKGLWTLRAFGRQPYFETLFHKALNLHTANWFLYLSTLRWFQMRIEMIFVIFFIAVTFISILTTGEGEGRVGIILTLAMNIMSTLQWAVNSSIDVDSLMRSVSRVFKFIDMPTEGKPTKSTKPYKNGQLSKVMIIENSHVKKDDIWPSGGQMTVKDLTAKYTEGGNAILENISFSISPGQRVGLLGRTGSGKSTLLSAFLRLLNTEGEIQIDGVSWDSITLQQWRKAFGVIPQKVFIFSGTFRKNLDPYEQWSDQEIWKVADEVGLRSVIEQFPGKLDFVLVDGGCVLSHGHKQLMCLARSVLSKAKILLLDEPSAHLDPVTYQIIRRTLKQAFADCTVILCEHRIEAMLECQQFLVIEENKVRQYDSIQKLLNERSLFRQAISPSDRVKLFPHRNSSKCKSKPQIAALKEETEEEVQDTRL

For `C[C@]1(OCc2ccccc2)CC2C3C(=O)N(c4cc(Cl)cc(Cl)c4)C(=O)C3C3(C(=O)Nc4c(Cl)cc(Cl)cc43)N2C1` (single isomer, unassigned) [Example 240], the “Nauc @ 3 μM” value is on record as “+++ (NAUC “+++” refers to an observed NAUC >170% of positive control)” and the “Nauc @ 10 μM” value is reported as “+ (NAUC “+” refers to an observed NAUC <140% of positive control)”.

For the molecule `C[C@]1(OCc2ccccc2)CC2C3C(=O)N(c4cc(Cl)cc(Cl)c4)C(=O)C3C3(C(=O)Nc4c(Cl)cc(Cl)cc43)N2C1` (single isomer, unassigned) [Example 241], the “Nauc @ 3 μM” value is listed as “+++ (NAUC “+++” refers to an observed NAUC >170% of positive control)” and the “Nauc @ 10 μM” value is “+++ (NAUC “+++” refers to an observed NAUC >170% of positive control)”.

Turning to `CC(C)C1NC2(C(=O)Nc3c(Cl)cc(Cl)cc32)C2C(=O)N(c3cc(Cl)cc(Cl)c3)C(=O)C12` (single isomer, unassigned) [Example 242], the “Nauc @ 3 μM” value is recorded as “+++ (NAUC “+++” refers to an observed NAUC >170% of positive control)” and the “Nauc @ 10 μM” value was “+++ (NAUC “+++” refers to an observed NAUC >170% of positive control)”.

For the molecule `O=C1C2C3C[C@H](F)CN3C3(C(=O)Nc4c(Cl)cc(Cl)cc43)C2C(=O)N1c1cc(Cl)cc(Cl)c1` (single isomer, unassigned) [Example 243], the “Nauc @ 3 μM” value is “+++ (NAUC “+++” refers to an observed NAUC >170% of positive control)” and the “Nauc @ 10 μM” value is listed as “+++ (NAUC “+++” refers to an observed NAUC >170% of positive control)”.

For `C[C@]1(F)CC2C3C(=O)N(c4cc(Cl)cc(Cl)c4)C(=O)C3C3(C(=O)Nc4c(Cl)cc(Cl)cc43)N2C1` (single isomer, unassigned) [Example 249], the “Nauc @ 3 μM” value is “++ (NAUC “++” refers to an observed NAUC 170-140% of positive control)” and the “Nauc @ 10 μM” value was “+ (NAUC “+” refers to an observed NAUC <140% of positive control)”.

Turning to `O=C1C2C3CCCN3C3(C(=O)Nc4c(Cl)cc(Cl)cc43)C2C(=O)N1c1cc(Cl)c(OC(F)F)c(Cl)c1` (single isomer, unassigned) [Example 250], the “Nauc @ 3 μM” value is given as “+++ (NAUC “+++” refers to an observed NAUC >170% of positive control)” and the “Nauc @ 10 μM” value is listed as “+++ (NAUC “+++” refers to an observed NAUC >170% of positive control)”.

On to `COc1cc(Cl)cc(N2C(=O)C3C4C[C@](C)(F)CN4C4(C(=O)Nc5c(Cl)cc(Cl)cc54)C3C2=O)c1` (single isomer, unassigned) [Example 254], for which the “Nauc @ 3 μM” value was “+++ (NAUC “+++” refers to an observed NAUC >170% of positive control)” and the “Nauc @ 10 μM” value was “+++ (NAUC “+++” refers to an observed NAUC >170% of positive control)”.

For the molecule `CC1(C)CC2C3C(=O)N(c4cc(Cl)c(OC(F)F)c(Cl)c4)C(=O)C3C3(C(=O)Nc4c(Cl)cc(Cl)cc43)N2C1` (single isomer, unassigned) [Example 255], the “Nauc @ 3 μM” value is “+++ (NAUC “+++” refers to an observed NAUC >170% of positive control)” and the “Nauc @ 10 μM” value is reported as “+++ (NAUC “+++” refers to an observed NAUC >170% of positive control)”.

For `COc1cc(Cl)cc(N2C(=O)C3C4C[C@](C)(O)CN4C4(C(=O)Nc5c(Cl)cc(Cl)cc54)C3C2=O)c1` (single isomer, unassigned) [Example 256], the “Nauc @ 3 μM” value was “++ (NAUC “++” refers to an observed NAUC 170-140% of positive control)” and the “Nauc @ 10 μM” value is reported as “+++ (NAUC “+++” refers to an observed NAUC >170% of positive control)”.

In the case of `CCC(C)C1NC2(C(=O)Nc3c(Cl)cc(Cl)cc32)C2C(=O)N(c3cc(Cl)cc(OC)c3)C(=O)C12` (centres unmarked) [Example 7, 3′-(Sec-butyl)-5,7-dichloro-5′-(3-chloro-5-methoxyphenyl)-2′,3′,3a′,6a′-tetrahydro-4′H-spiro[indoline-3,1′-pyrrolo[3,4-c]pyrrole]-2,4′,6′(5′H)-trione], the “Nauc @ 3 μM” value was “++ (NAUC “++” refers to an observed NAUC 170-140% of positive control)” and the “Nauc @ 10 μM” value is “++ (NAUC “++” refers to an observed NAUC 170-140% of positive control)”.

On to `C[C@]1(O)CC2C3C(=O)N(c4nnn[nH]4)C(=O)C3C3(C(=O)Nc4c(Cl)cc(Cl)cc43)N2C1` (stereo partly drawn) [Example 8, (7′S)-5,7-Dichloro-7′-hydroxy-7′-methyl-2′-(1H-tetrazol-5-yl)-3a′,6′,7′,8′,8a′,8b′-hexahydro-1′H-spiro[indoline-3,4′-pyrrolo[3,4-a]pyrrolizine]-1′,2,3′(2′H)-trione], for which the “Nauc @ 3 μM” value is recorded as “+++ (NAUC “+++” refers to an observed NAUC >170% of positive control)” and the “Nauc @ 10 μM” value is “+ (NAUC “+” refers to an observed NAUC <140% of positive control)”.

Take `O=C1C2C(C(=O)N1c1cc(Cl)cc(Cl)c1)C(c1ccc(F)nc1)N1CCCC21` (centres unmarked) [Example 9, 2-(3,5-Dichlorophenyl)-4-(6-fluoropyridin-3-yl)hexahydropyrrolo[3,4-a]pyrrolizine-1,3(2H,4H)-dione]: the “Nauc @ 3 μM” value was “+ (NAUC “+” refers to an observed NAUC <140% of positive control)” and the “Nauc @ 10 μM” value is given as “++ (NAUC “++” refers to an observed NAUC 170-140% of positive control)”.

In the case of `C[C@]1(F)CC2C3C(=O)N(c4cc(Cl)cc(Cl)c4)C(=O)C3C3(C(=O)Nc4c(Cl)cc(Cl)cc43)N2C1` (stereo partly drawn) [Example 10, (7′S)-5,7-dichloro-2′-(3,5-dichlorophenyl)-7′-fluoro-7′-methyl-3a′,6′,7′,8′,8a′,8b′-hexahydro-1′H-spiro[indoline-3,4′-pyrrolo[3,4-a]pyrrolizine]-1′,2,3′(2′H)-trione], the “Nauc @ 3 μM” value is “+++ (NAUC “+++” refers to an observed NAUC >170% of positive control)” and the “Nauc @ 10 μM” value is recorded as “+++ (NAUC “+++” refers to an observed NAUC >170% of positive control)”.

Take `O=C1C2C3CCCN3C3(C(=O)Nc4c(Cl)cc(Cl)cc43)C2C(=O)N1c1cccc(Cl)c1` (centres unmarked) [Example 11]: the “Nauc @ 3 μM” value is reported as “+ (NAUC “+” refers to an observed NAUC <140% of positive control)” and the “Nauc @ 10 μM” value is “+++ (NAUC “+++” refers to an observed NAUC >170% of positive control)”.

Regarding `Cc1cccc2c1NC(=O)C21C2C(=O)N(c3cc(Cl)cc(Cl)c3)C(=O)C2C2CCCN21` (centres unmarked) [Example 12], the “Nauc @ 3 μM” value is “+ (NAUC “+” refers to an observed NAUC <140% of positive control)” and the “Nauc @ 10 μM” value is reported as “++ (NAUC “++” refers to an observed NAUC 170-140% of positive control)”.

For the molecule `N#Cc1cccc(N2C(=O)C3C4CCCN4C4(C(=O)Nc5c(Cl)cc(Cl)cc54)C3C2=O)c1` (centres unmarked) [Example 14], the “Nauc @ 3 μM” value is listed as “+ (NAUC “+” refers to an observed NAUC <140% of positive control)” and the “Nauc @ 10 μM” value is “++ (NAUC “++” refers to an observed NAUC 170-140% of positive control)”.

Consider `O=C1C2C3CCCN3C3(C(=O)Nc4c(Cl)cc(Cl)cc43)C2C(=O)N1c1cccc(C(F)(F)F)c1` (centres unmarked) [Example 15], for which the “Nauc @ 3 μM” value is recorded as “++ (NAUC “++” refers to an observed NAUC 170-140% of positive control)” and the “Nauc @ 10 μM” value is “+++ (NAUC “+++” refers to an observed NAUC >170% of positive control)”.

For the molecule `O=C1C2C3CCCN3C3(C(=O)Nc4c(Cl)cc(Cl)cc43)C2C(=O)N1c1cc(C(F)(F)F)cc(C(F)(F)F)c1` (centres unmarked) [Example 16], the “Nauc @ 3 μM” value was “+++ (NAUC “+++” refers to an observed NAUC >170% of positive control)” and the “Nauc @ 10 μM” value is given as “+++ (NAUC “+++” refers to an observed NAUC >170% of positive control)”.

Regarding `CC(C)C1NC2(C(=O)Nc3c(Cl)cc(Cl)cc32)C2C(=O)N(c3cc(Cl)cc(Cl)c3)C(=O)C12` (centres unmarked) [Example 17], the “Nauc @ 3 μM” value is “+ (NAUC “+” refers to an observed NAUC <140% of positive control)” and the “Nauc @ 10 μM” value was “++ (NAUC “++” refers to an observed NAUC 170-140% of positive control)”.

Consider `O=C1C2C3CCCN3C3(C(=O)Nc4c(C(F)(F)F)cccc43)C2C(=O)N1c1cc(Cl)cc(Cl)c1` (centres unmarked) [Example 18], for which the “Nauc @ 3 μM” value is recorded as “++ (NAUC “++” refers to an observed NAUC 170-140% of positive control)” and the “Nauc @ 10 μM” value is “+ (NAUC “+” refers to an observed NAUC <140% of positive control)”.

With `NC(=O)c1cccc(N2C(=O)C3C4CCCN4C4(C(=O)Nc5c(Cl)cc(Cl)cc54)C3C2=O)c1` (centres unmarked) [Example 19], the “Nauc @ 3 μM” value is reported as “+ (NAUC “+” refers to an observed NAUC <140% of positive control)” and the “Nauc @ 10 μM” value is reported as “++ (NAUC “++” refers to an observed NAUC 170-140% of positive control)”.

Turning to `O=C1C2C3CCCN3C3(C(=O)Nc4c(Cl)cc(Cl)cc43)C2C(=O)N1c1cncc(Cl)c1` (centres unmarked) [Example 20], the “Nauc @ 3 μM” value is “+ (NAUC “+” refers to an observed NAUC <140% of positive control)” and the “Nauc @ 10 μM” value is “++ (NAUC “++” refers to an observed NAUC 170-140% of positive control)”.

For `O=C1C2C3CCCN3C3(C(=O)Nc4c(Cl)cc(Cl)cc43)C2C(=O)N1c1cc(F)cc(F)c1` (centres unmarked) [Example 21], the “Nauc @ 3 μM” value is “++ (NAUC “++” refers to an observed NAUC 170-140% of positive control)” and the “Nauc @ 10 μM” value is “++ (NAUC “++” refers to an observed NAUC 170-140% of positive control)”.

As for `O=C1C2C3c4ccccc4CN3C3(C(=O)Nc4c(Cl)cc(Cl)cc43)C2C(=O)N1c1cc(Cl)cc(Cl)c1` (centres unmarked) [Example 22], the “Nauc @ 3 μM” value is on record as “+++ (NAUC “+++” refers to an observed NAUC >170% of positive control)” and the “Nauc @ 10 μM” value is recorded as “+++ (NAUC “+++” refers to an observed NAUC >170% of positive control)”.

For `O=C1C2C3CCCN3C3(C(=O)Nc4c(Cl)cc(Cl)cc43)C2C(=O)N1c1cccc2c1OC(F)(F)O2` (centres unmarked) [Example 23], the “Nauc @ 3 μM” value was “++ (NAUC “++” refers to an observed NAUC 170-140% of positive control)” and the “Nauc @ 10 μM” value is reported as “+ (NAUC “+” refers to an observed NAUC <140% of positive control)”.
